Results: PubChem BioAssay (NCI)
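Cultured in 96-well plates, cells were exposed to test compound for 48 hours across five concentrations. The concentration for full growth arrest is given as TGI.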

Tests used:
Assay in all cases: growth of human tumour cells (NCI), 48 h
TK-10 renal = test system: TK-10 renal
SNB-19 CNS = test system: SNB-19 CNS
OVCAR-4 ovarian = test system: OVCAR-4 ovarian
SNB-78 CNS = test system: SNB-78 CNS
OVCAR-8 ovarian = test system: OVCAR-8 ovarian
UACC-257 melanoma = test system: UACC-257 melanoma
HCT-15 colon = test system: HCT-15 colon
HL-60(TB) leukemia = test system: HL-60(TB) leukemia
ACHN renal = test system: ACHN renal
SNB-75 CNS = test system: SNB-75 CNS
UO-31 renal = test system: UO-31 renal
HT29 colon = test system: HT29 colon
M14 melanoma = test system: M14 melanoma
LOX IMVI melanoma = test system: LOX IMVI melanoma
SF-295 CNS = test system: SF-295 CNS
NCI-H460 lung = test system: NCI-H460 lung
KM12 colon = test system: KM12 colon
NCI-H522 lung = test system: NCI-H522 lung
DLD-1 colon = test system: DLD-1 colon
DMS 273 small cell lung = test system: DMS 273 small cell lung
HOP-62 NSCLC = test system: HOP-62 NSCLC
OVCAR-5 ovarian = test system: OVCAR-5 ovarian
UACC-62 melanoma = test system: UACC-62 melanoma
HCC-2998 colon = test system: HCC-2998 colon
U251 CNS = test system: U251 CNS
DMS 114 small cell lung = test system: DMS 114 small cell lung
RPMI-8226 leukemia = test system: RPMI-8226 leukemia
OVCAR-3 ovarian = test system: OVCAR-3 ovarian
SN12C renal = test system: SN12C renal
CAKI-1 renal = test system: CAKI-1 renal
786-0 renal = test system: 786-0 renal
MOLT-4 leukemia = test system: MOLT-4 leukemia
SF-539 CNS = test system: SF-539 CNS
RXF-631 renal = test system: RXF-631 renal
NCI-H23 lung = test system: NCI-H23 lung
SR leukemia = test system: SR leukemia
K-562 leukemia = test system: K-562 leukemia
SW-620 colon = test system: SW-620 colon
IGROV1 ovarian = test system: IGROV1 ovarian
HCT-116 colon = test system: HCT-116 colon
CCRF-CEM leukemia = test system: CCRF-CEM leukemia
SK-MEL-28 melanoma = test system: SK-MEL-28 melanoma
LXFL 529 NSCLC = test system: LXFL 529 NSCLC
HOP-18 NSCLC = test system: HOP-18 NSCLC
RXF 393 renal = test system: RXF 393 renal
KM20L2 colon = test system: KM20L2 colon
SK-OV-3 ovarian = test system: SK-OV-3 ovarian
EKVX NSCLC = test system: EKVX NSCLC
XF 498 CNS = test system: XF 498 CNS
M19-MEL melanoma = test system: M19-MEL melanoma
SF-268 CNS = test system: SF-268 CNS
SK-MEL-5 melanoma = test system: SK-MEL-5 melanoma
A549 NSCLC = test system: A549 NSCLC
HOP-92 NSCLC = test system: HOP-92 NSCLC
A498 renal = test system: A498 renal

Measured: TGI

CN(C)CCC(=O)N1CCc2c([nH]c3ccccc23)C1c1cccnc1 (stereo not given)
59.7 µM: RXF 393 renal
> 100 µM: all other assays above
